Tests used:
[1] = biological target: T1, SARS-CoV-2 main protease (M^pro) (Severe acute respiratory syndrome coronavirus 2, UniProt P0DTD1); test: Rapid-Fire MS Biochemical Assay measuring Mpro activity (12.5 nM Mpro); settings: Table 1A, Mpro inhibition, 5 μM substrate peptide, 30 min
[2] = biological target: T1, SARS-CoV-2 main protease (M^pro); test: Rapid-Fire MS Biochemical Assay measuring Mpro activity (5 nM Mpro); settings: Table 1B, Mpro inhibition, 5 μM substrate peptide, 120 min, read-out: Rapid-Fire Assay IC50

N#CC1CN(c2ccccc2)C(=O)N1c1cncc2ccccc12 (racemic) [Compound 1, 3-(isoquinolin-4-yl)-2-oxo-1-phenylimidazolidine-4-carbonitrile] showed an IC50 [1] of 0.037 µM and an IC50 [2] of 0.02 to 0.2 µM.

For N#CC1CN(c2cccc(Cl)c2)C(=O)N1c1cncc2ccccc12 (racemic) [Compound 2, 1-(3-chlorophenyl)-3-(isoquinolin-4-yl)-2-oxoimidazolidine-4-carbonitrile], the IC50 [1] was 0.005 µM and the IC50 [2] was under 0.02 µM.

Work on N#CC1CN(c2ccc(C(F)(F)F)cn2)C(=O)N1c1cncc2ccccc12 (racemic) [Compound 3, 3-(isoquinolin-4-yl)-2-oxo-1-(5-(trifluoromethyl)pyridin-2-yl)imidazolidine-4-carbonitrile] yielded an IC50 [1] of 0.007 µM and an IC50 [2] of under 0.02 µM.

With N#CC1CN(c2ccc(C(F)(F)F)cc2)C(=O)N1c1cncc2ccccc12 (racemic) [Compound 4, 3-(isoquinolin-4-yl)-2-oxo-1-(4-(trifluoromethyl)phenyl)imidazolidine-4-carbonitrile] the IC50 [1] was under 0.005 µM and the IC50 [2] was under 0.02 µM.

N#CC1CN(c2ccc(F)cc2)C(=O)N1c1cncc2ccccc12 (racemic) [Compound 6, 1-(4-fluorophenyl)-3-(isoquinolin-4-yl)-2-oxoimidazolidine-4-carbonitrile] showed an IC50 [1] of 0.027 µM and an IC50 [2] of 0.02 to 0.2 µM.

In the case of N#CC1CN(c2cccc(F)c2)C(=O)N1c1cncc2ccccc12 (racemic) [Compound 7, 1-(3-fluorophenyl)-3-(isoquinolin-4-yl)-2-oxoimidazolidine-4-carbonitrile], the IC50 [1] is reported as 0.006 µM and the IC50 [2] is reported as under 0.02 µM.

For N#CC1CN(c2ccc(Cl)cn2)C(=O)N1c1cncc2ccccc12 (racemic) [Compound 10, 1-(5-chloropyridin-2-yl)-3-(isoquinolin-4-yl)-2-oxoimidazolidine-4-carbonitrile], the IC50 [1] was 0.005 µM and the IC50 [2] was under 0.02 µM.

N#C[C@H]1CN(c2ccccc2)C(=O)N1c1cncc2ccccc12 (single isomer, unassigned) [Compound 1a] showed an IC50 [1] of 0.009 µM and an IC50 [2] of under 0.02 µM.

Molecule N#C[C@@H]1CN(c2ccccc2)C(=O)N1c1cncc2ccccc12 (single isomer, unassigned) [Compound 1b] has an IC50 [1] of 6.4 µM and an IC50 [2] of over 1 µM.

N#C[C@H]1CN(c2cccc(Cl)c2)C(=O)N1c1cncc2ccccc12 (single isomer, unassigned) [Compound 2a] was tested, and the IC50 [1] was under 0.005 µM and the IC50 [2] was under 0.02 µM.

N#C[C@@H]1CN(c2cccc(Cl)c2)C(=O)N1c1cncc2ccccc12 (single isomer, unassigned) [Compound 2b] showed an IC50 [1] of 3 µM and an IC50 [2] of over 1 µM.

N#CC1CN(c2ccc(Cl)cc2)C(=O)N1c1cncc2ccccc12 (stereo not drawn) [Compound 5, 1-(4-chlorophenyl)-3-(isoquinolin-4-yl)-2-oxoimidazolidine-4-carbonitrile] was tested, and the IC50 [1] was under 0.005 µM and the IC50 [2] was under 0.02 µM.

N#CC1CN(c2ccc(F)cn2)C(=O)N1c1cncc2ccccc12 (stereo not drawn) [Compound 8, 1-(5-fluoropyridin-2-yl)-3-(isoquinolin-4-yl)-2-oxoimidazolidine-4-carbonitrile] showed an IC50 [1] of 0.077 µM and an IC50 [2] of 0.02 to 0.2 µM.

For N#C[C@H]1CN([C@H]2C[C@H](C(F)(F)F)C2)C(=O)N1c1cncc2ccccc12 [Compound 45a, (R)-3-(isoquinolin-4-yl)-2-oxo-1-((1 r,3R)-3-(trifluoromethyl)cyclobutyl)imidazolidine-4-carbonitrile], the IC50 [2] was under 0.02 µM.

For N#C[C@H]1CN([C@H]2C[C@@H](C(F)(F)F)C2)C(=O)N1c1cncc2ccccc12 [Compound 45b, (R)-3-(isoquinolin-4-yl)-2-oxo-1-((1s,3S)-3-(trifluoromethyl)cyclobutyl)imidazolidine-4-carbonitrile], the IC50 [2] was 0.2 to 1 µM.

Work on C[C@H]1C[C@H](N2C[C@H](C#N)N(c3cncc4ccccc34)C2=O)C1 [Compound 120b, (R)-3-(isoquinolin-4-yl)-1-((1 r,3R)-3-methylcyclobutyl)-2-oxoimidazolidine-4-carbonitrile] yielded an IC50 [2] of 0.02 to 0.2 µM.

N#C[C@@H]1CN([C@H]2CC[C@H](F)CC2)C(=O)N1c1cncc2ccccc12 [Compound 121c, (S)-1-((1 r,4S)-4-fluorocyclohexyl)-3-(isoquinolin-4-yl)-2-oxoimidazolidine-4-carbonitrile] gave an IC50 [2] of over 1 µM.

CC(C)[C@H]1C[C@@H](N2C[C@H](C#N)N(c3cncc4ccccc34)C2=O)C1 [Compound 123a, (R)-1-((1s,3S)-3-isopropylcyclobutyl)-3-(isoquinolin-4-yl)-2-oxoimidazolidine-4-carbonitrile] gave an IC50 [2] of under 0.02 µM.

For CC(C)[C@H]1C[C@H](N2C[C@H](C#N)N(c3cncc4ccccc34)C2=O)C1 [Compound 123b, (R)-1-((1r,3R)-3-isopropylcyclobutyl)-3-(isoquinolin-4-yl)-2-oxoimidazolidine-4-carbonitrile], the IC50 [2] was under 0.02 µM.

Molecule CC(C)[C@H]1C[C@@H](N2C[C@@H](C#N)N(c3cncc4ccccc34)C2=O)C1 [Compound 123c, (S)-1-((1s,3R)-3-isopropylcyclobutyl)-3-(isoquinolin-4-yl)-2-oxoimidazolidine-4-carbonitrile] has an IC50 [2] of over 1 µM.

In the case of CC(C)[C@H]1C[C@H](N2C[C@@H](C#N)N(c3cncc4ccccc34)C2=O)C1 [Compound 123d, (S)-1-((1r,3S)-3-isopropylcyclobutyl)-3-(isoquinolin-4-yl)-2-oxoimidazolidine-4-carbonitrile], the IC50 [2] is reported as over 1 µM.

With N#C[C@H]1CN([C@H]2C[C@@H](C3CC3)C2)C(=O)N1c1cncc2ccccc12 [Compound 124a, (R)-1-((1s,3S)-3-cyclopropylcyclobutyl)-3-(isoquinolin-4-yl)-2-oxoimidazolidine-4-carbonitrile] the IC50 [2] was under 0.02 µM.

N#C[C@H]1CN([C@H]2C[C@H](C3CC3)C2)C(=O)N1c1cncc2ccccc12 [Compound 124b, (R)-1-((1r,3R)-3-cyclopropylcyclobutyl)-3-(isoquinolin-4-yl)-2-oxoimidazolidine-4-carbonitrile] was tested, and the IC50 [2] was under 0.02 µM.

In the case of N#C[C@@H]1CN([C@H]2C[C@H](C3CC3)C2)C(=O)N1c1cncc2ccccc12 [Compound 124c, (S)-1-((1r,3S)-3-cyclopropylcyclobutyl)-3-(isoquinolin-4-yl)-2-oxoimidazolidine-4-carbonitrile], the IC50 [2] is reported as over 1 µM.

N#C[C@@H]1CN([C@H]2C[C@@H](C3CC3)C2)C(=O)N1c1cncc2ccccc12 [Compound 124d, (S)-1-((1s,3R)-3-cyclopropylcyclobutyl)-3-(isoquinolin-4-yl)-2-oxoimidazolidine-4-carbonitrile] gave an IC50 [2] of over 1 µM.

For N#CC1CN([C@H]2CC[C@H](C(F)(F)F)CC2)C(=O)N1c1cncc2ccccc12 (stereo partly drawn) [Compound 128, 3-(isoquinolin-4-yl)-2-oxo-1-((1 r,4r)-4-(trifluoromethyl)cyclohexyl)imidazolidine-4-carbonitrile], the IC50 [2] was under 0.02 µM.

N#C[C@H]1CN([C@H]2CC[C@H](C(F)(F)F)CC2)C(=O)N1c1cncc2ccccc12 [Compound 128a, (R)-3-(isoquinolin-4-yl)-2-oxo-1-((1 r,4R)-4-(trifluoromethyl)cyclohexyl)imidazolidine-4-carbonitrile] gave an IC50 [2] of under 0.02 µM.

N#C[C@@H]1CN([C@H]2CC[C@H](C(F)(F)F)CC2)C(=O)N1c1cncc2ccccc12 [Compound 128b, (S)-3-(isoquinolin-4-yl)-2-oxo-1-((1 r,4R)-4-(trifluoromethyl)cyclohexyl)imidazolidine-4-carbonitrile] was tested, and the IC50 [2] was over 1 µM.

Work on CN1CC(N2CC(C#N)N(c3cncc4ccccc34)C2=O)C1 (stereo not drawn) [Compound 132, 3-(isoquinolin-4-yl)-1-(1-methylazetidin-3-yl)-2-oxoimidazolidine-4-carbonitrile] yielded an IC50 [2] of over 1 µM.

From patent US20250092016A1, “COMPOUNDS AND COMPOSITIONS FOR THE TREATMENT OF CORONAVIRAL RELATED DISEASES” (priority 2021, published 2025)
